We go through two compounds from patent US4470974A, “Gastric cytoprotection with L-363,586” (Merck & Co., Inc., priority 1983, dated 1984).

The subject of one assay is S.D. rat. Type of assay: in vivo. The note with it: for dose at which significant ulcer reduction was observed: administered simultaneously with indomethacin; for Gastric Ulcers % Inhibition / Gastric Ulcers Mean Score + SEM (number of ulcers): 4 hours after indomethacin. On the procedure:
Indomethacin, 20 mg/kg p.o., was used to induce ulcers in the 24 hr. fasted S.D. rat. […]
The number of ulcers for twenty-six (i.p.) and fifteen (p.o.) aqueous vehicle-dosed control animals in the indomethacin ulcer assay were so close, (23.0±2.2 S.E.M. i.p.; 18.1±1.6 S.E.M. p.o.), that the data from each experimental dosage group were pooled for group statistical analysis by way of Student's "t" test. FIG. 1 indicates the number of ulcers resulting from indomethacin at 20 mg/kg p.o., when either 0.5% (wt.) aqueous methylcellulose vehicle or L-363,586 was co-administered. The bold-faced numbers at the bottom of each column represent the number of rats used for each value, while the dose, in mg/kg, is noted at the top of each column. […] Higher i.p. doses, from 0.0016 to 0.1 mg/kg, thereafter, inhibited ulcer formation by 80% to 94%.

Assay [1] relates to Sprague-Dawley (S.D.) rats. Type of assay: in vivo, rat. As to conditions: for Gastric Lesions % Inhibition / Gastric Lesions Mean Score + SEM: 60 minutes after ethanol. On the procedure: Twenty-four hr. fasted Sprague-Dawley (S.D.) rats were perorally (p.o.) dosed with 1.0 ml absolute ethanol. […] One hour later, the animals were sacrificed and stomach mucosae were examined for resulting lesions.

The mark [2] stands for this setting: 0.01 mg/kg p.o. simultaneously with indomethacin 20 mg/kg p.o.
The mark [3] stands for this setting: 0.1 mg/kg p.o. simultaneously with indomethacin 20 mg/kg p.o.
The mark [4] stands for this setting: 1.0 mg/kg p.o. simultaneously with indomethacin 20 mg/kg p.o.
The mark [5] stands for this setting: 0.22 mg/kg p.o. coadministered with 1.0 ml 100% ethanol.
The mark [6] stands for this setting: 0.44 mg/kg p.o. coadministered with 1.0 ml 100% ethanol.
Setting [7] is: 1.0 mg/kg p.o. coadministered with 1.0 ml 100% ethanol.
Where [8] appears, read: 2.2 mg/kg p.o. coadministered with 1.0 ml 100% ethanol.
[9] abbreviates: 4.4 mg/kg p.o. coadministered with 1.0 ml 100% ethanol.
Where [10] appears, read: 0.0001 mg/kg i.p. immediately following 20 mg/kg p.o. indomethacin.
Setting [11] is: 0.001 mg/kg i.p. immediately following 20 mg/kg p.o. indomethacin.
Where [12] appears, read: 0.01 mg/kg i.p. immediately following 20 mg/kg p.o. indomethacin.
The mark [13] stands for this setting: 0.1 mg/kg i.p. immediately following 20 mg/kg p.o. indomethacin.

Read-outs that look alike come from different tables or passages of the source.

For the compound `CC(C)[C@@H]1NC(=O)[C@H](CCCCN)NC(=O)[C@@H](Cc2c[nH]c3ccccc23)NC(=O)[C@H](Cc2ccc(O)cc2)NC(=O)[C@H](C)N(C)C(=O)[C@H](Cc2ccccc2)NC1=O` [L-363,586, cyclo-(N-methyl-Ala-Tyr-d-Trp-Lys-Val-Phe)], in the assay with S.D. rat (0.00001 mg/kg (10 nanograms/kg) i.p. immediately following indomethacin 20 mg/kg p.o.), the “reduction of the number of ulcers” value turned out to be 58.3%. The results for the “% Inhibition of Gastric Ulcers” value in the assay with S.D. rat (setting [2]), in the assay on S.D. rat (setting [3]) and in the assay with S.D. rat (setting [4]) were -2.8%, 50.3% and 83.4%, respectively. In addition, the figures for the “Number of Gastric Ulcers M + S.E.M.” value in the assay with S.D. rat (setting [2]), with S.D. rat (setting [3]) and with S.D. rat (setting [4]) were 18.6 ± 4.4, 9.0 ± 1.9 and 3.0 ± 1.3, respectively. Moreover, the “reduction in gastric mucosal ulcers” value in the assay on S.D. rat (administered either p.o. or i.p.) is recorded as “dose-dependent reduction”. Further, the results for the “dose at which significant ulcer reduction was observed” value in the assay on S.D. rat (i.p.) and in the assay on S.D. rat (p.o.) were 10 nanograms per kilogram and 0.1 mg/kg, respectively. Moreover, the “further reduction of damage with increasing dose” value with S.D. rat (increasing log-dose amounts from 0.00001 to 0.001 mg/kg i.p., indomethacin 20 mg/kg p.o.) is recorded as “did not effectively reduce the damage any further”. The “Gastric Lesions % Inhibition” value is 8.0% in assay [1] (setting [5]); 28.0% in assay [1] (setting [6]); 28.0% in assay [1] (setting [7]); 40.0% in assay [1] (setting [8]); 60.0% in assay [1] (setting [9]). Besides, the “Gastric Lesions Mean Score + SEM” value in assay [1] (setting [5]) is listed as 2.3 ± 0.3; in assay [1] (setting [6]) it was 1.8 ± 0.4; in assay [1] (setting [7]) it was 1.8 ± 0.3; in assay [1] (setting [8]) it was 1.5 ± 0.4; in assay [1] (setting [9]), 1.0 ± 0.3. The “prophylactic effect on ethanol-induced lesions” value in assay [1] (0.037 to 3.0 mg/kg p.o. fifteen min. prior to 1.0 ml absolute ethanol, examined one hour later) was “No prophylactic effect”. Also, the “dose significantly effective in protecting against ethanol-induced lesions” value in assay [1] (p.o. simultaneously with 100% ethanol, lowest such dose) amounted to 0.44 mg/kg.
With `C[C@H](N)C(=O)NCC(=O)N[C@H]1CSSC[C@@H](C(=O)O)NC(=O)[C@H](CO)NC(=O)[C@H]([C@@H](C)O)NC(=O)[C@H](Cc2ccccc2)NC(=O)[C@H]([C@@H](C)O)NC(=O)[C@H](CCCCN)NC(=O)[C@H](Cc2c[nH]c3ccccc23)NC(=O)[C@H](Cc2ccccc2)NC(=O)[C@H](Cc2ccccc2)NC(=O)[C@H](CC(N)=O)NC(=O)[C@H](CCCCN)NC1=O` [somatostatin, reference compound], the “Gastric Ulcers % Inhibition” value in the assay on S.D. rat (setting [10]) is -9.3%; with S.D. rat (setting [11]), 2.4%; in the assay with S.D. rat (setting [12]), 16.1%; in the assay with S.D. rat (setting [13]), 5.9%. Also, the “Gastric Ulcers Mean Score + SEM (number of ulcers)” value was found to be 22.4 ± 3.8 in the assay with S.D. rat (setting [10]); 21.0 ± 2.4 in the assay with S.D. rat (setting [11]); 17.2 ± 2.3 in the assay with S.D. rat (setting [12]); 19.3 ± 3.3 in the assay with S.D. rat (setting [13]); 7.7 ± 3.6 with S.D. rat (0.5 mg/kg i.p. immediately following 20 mg/kg p.o. indomethacin); 11.0 ± 3.0 in the assay with S.D. rat (1.0 mg/kg i.p. immediately following 20 mg/kg p.o. indomethacin). Further, the “effectiveness in the peroral (p.o.) indomethacin-induced ulcer assay” value in the assay on S.D. rat (doses up to 0.1 mg/kg i.p.) is “not effective”.
